Results: publication PMC8540953, “Preparation and Pharmacokinetic Characterization of an Anti-Virulence Compound Nanosuspensions” (Pharmaceutics, 2021)

Tests used:
[1] = In vitro dissolution in 0.5% SDS solution; format: physicochemical; settings: 37 °C, 75 rpm
Procedure: The concentrations of CCG-211790 nanosuspensions were measured using an Agilent series 1100 HPLC system (Agilent Technologies, Santa Clara, CA, USA) equipped with a diode array detector. Sample separation was carried out with a Kinetex C18 column (75 mm × 3 mm, particle size 2.6 µm, Phenomenex, Torrance, CA, USA). The mobile phase was acetonitrile-water (50:50, v/v), flow rate was set to 0.5 mL/min, and column temperature to 35 °C. The injection volume was 30 µL. The absorption wavelength was set at 255 nm. CCG-211790 nanoparticles were dissolved in the mobile phase for HPLC analysis. Due to the fact that the analyte concentration was high and no other matrix was present in the sample, the HPLC method performed very well with excellent calibration linearity, reproducibility, and spike recovery. During sample analysis, ongoing quality controls were performed including a reagent blank, a duplicate sample, and spike recovery samples for every 10 samples analyzed.
The in vitro dissolution profiles of CCG-211790 bulk powder, NanoA and NanoB suspensions were examined. SDS is one of the most frequently used artificial surfactants in dissolution test to establish sink conditions for water-insoluble drugs. Therefore, a SDS solution (0.5% w/v in water) was used as the dissolution medium in this study. In each dissolution test, suspension or powder equivalent to 4 mg of CCG-211790 were directly dispersed in 500 mL dissolution medium under magnetic stirring at 75 rpm. The temperature of the dissolution medium was maintained at 37 ± 1 °C in a water bath. Sample aliquots (3 mL) were withdrawn at predetermined time points (5, 10, 20, 30, 45, and 60 min) and immediately replaced with 3 mL of fresh dissolution medium to readjust the volume to 500 mL. Undissolved particles were separated by centrifugation at 10,000× g for 5 min and the supernatant was collected for HPLC analysis. All experiments were run in triplicate.

[2] = Solubility and solution stability of CCG-211790; format: physicochemical; settings: PEG/PG solution, aqueous with cosolvent or surfactant or cyclodextrin; ethanol (10%), propylene glycol (25%), PEG 400 (35%) and water (30%)
[3] = cited from earlier work
[4] = test system: methicillin-resistant Staphylococcus aureus (MRSA); design: method as in PMID 33556134; settings: cited from earlier work

For `COc1ccc2c(c1)-c1nc(SCC(F)(F)F)n(C)c(=O)c1C(C)(C)C2` [CCG-211790 bulk powder], the drug release ([1]; at 5 min) was 19.6%, the drug release ([1]; at 45 min) was 63.4% and the drug release ([1]; at 60 min) was 64.3%.
For `COc1ccc2c(c1)-c1nc(SCC(F)(F)F)n(C)c(=O)c1C(C)(C)C2` [CCG-211790, 9-methoxy-3,5,5-trimethyl-2-((2,2,2-trifluoroethyl)thio)-5,6-dihydrobenzo[h]quinazolin-4(3H)-one], the solubility [2] is given as at most 1000 µg/mL, the aqueous solubility [3] is given as “less than 50 ng/mL” and the “solubility in coconut oil” value [3] is given as “up to 37 mg/mL”. The “biofilm formation of MRSA” value [4] was “inhibited”.
